# Test results reported in patent publication US12061186B2, “Compositions and methods for using cross-dressing to enhance anti-tumor immune responses” (Massachusetts Institute of Technology, priority 2020, dated 2024).
# Tested on: MC38-SIY tumor cells
# Test: IFNγ-ELISpot of splenocytes from mice implanted with PRR agonist-coated tumor cells
# Assay type: in vivo
# Method: Tumor cell lines were cultured at 37° C. and 5% CO2 in DMEM (Gibco) supplemented with 10% FBS (Atlanta Biologicals), 1% penicillin/streptomycin (Gibco), and 1×HEPES (Gibco). Tumor cells were harvested by trypsinization (Gibco) and washed 3 times with PBS (Gibco). Cells were resuspended in PBS, and 2×10^6 tumor cells were injected subcutaneously into the flanks of mice. For experiments with pattern recognition receptor (PRR) agonist coating, 2×10^6 tumor cells were resuspended with 50 μg naked Poly(I:C) HMW (InvivoGen), DMXAA (InvivoGen), or Pam2CSK4 (InvivoGen) in PBS and injected subcutaneously into the flanks of mice. All PRR agonists were added to cells without a transfection reagent. For experiments with fixed tumor cells, the cells were fixed with 4% paraformaldehyde (Electron Microscopy Sciences) for 10 minutes at RT, washed twice and resuspended with PBS, and 2×10^6 tumor cells were injected subcutaneously into the flanks of mice. Tumor area measurements (calculated as length×width) were collected 2-3 times a week until the endpoint of the study. Data not shown but available upon request—Details on experimental cohorts, the raw data, as well as the power calculations for all tumor outgrowth experiments.
# ELISpot plates (EMD Millipore) were coated overnight at 4° C. with anti-IFNγ (BD Biosciences). Plates were washed and blocked with DMEM supplemented with 10% FBS, 1% penicillin/streptomycin, and 1×HEPES for 2 hours at room temperature (RT). Spleens were harvested from mice at day 5 or day 7 post-tumor inoculation and mashed through a 70 μm filter with a 1 mL syringe plunger to generate a single cell suspension. Red blood cells were lysed with 500 μL of ACK Lysing Buffer (Gibco) on ice for 2 minutes. Splenocytes were washed 3 times with chilled PBS and 1×10^6 cells were assayed per well in the presence or absence of 160 nM SIY peptide or 100 ng/mL PMA (Sigma-Aldrich) and 1 μg/mL ionomycin (Sigma-Aldrich) as a positive control. Plates were developed the next day using the BD mouse IFNγ-ELISpot kit, following manufacturer's protocol.
substance,measurement,setting,value
polyinosinic-polycytidylic acid [Poly(I:C)],induction of antigen-specific T cell responses (IFNγ-ELISpot),Poly(I:C)-coated 4% PFA-fixed MC38-SIY tumor cells,failed to induce any antigen-specific T cell responses
same,"antigen-specific T cell responses restored, as share of the priming responses observed in WT mice (IFNγ-ELISpot)","Poly(I:C)-coated MC38-SIY tumor cells implanted in Batf3−/− mice, day 7 post-tumor inoculation, 50 μg per 2×10^6 cells",45.0%
same,restoration of T cell responses (IFNγ-ELISpot),"Poly(I:C)-coated MHC class I-deficient (β2M−/−) MC38-SIY tumor cells, Batf3−/− mice",no restoration
